Earlier results in patent US20050084507A1, “Liquid preparations and surfactant/solvent systems” (priority 1999, published 2005).
≈ marks a conversion by molar mass, not a printed value.

## CCOC1Oc2ccc(OS(C)(=O)=O)cc2C1(C)C (stereo not shown) [ethofumesate]
  solubility in water: 50 µg/mL (≈ 175 µM)
